Results from paper PMC11697113, “The Hsc70 system maintains the synaptic SNARE protein SNAP-25 in an assembly-competent state and delays its aggregation [drawing 1]” (The Journal of Biological Chemistry, 2024).

Target: T1, Hsc70 (Homo sapiens, UniProt P11142)
T1 construct: 6X His-tag (TEV-cleavable) (cleaved yes); made in house; host or cells: E. coli Rosetta (DE3)
Assay: Competition binding vs FITC-p5 by fluorescence anisotropy
Conditions: Hsc70 5 μM, FITC-p5 50 nM, competitor 0 to 200 μM, phosphate buffer pH 7.4, overnight 4 °C, three independent experiments; for relative affinity for Hsc70: fluorescence anisotropy, comparator LOOPP
Experimental: Figure 3 Hsc70 forms complexes with SNAP-25.A, native PAGE of SNAP-25 (10 μM) in the presence and absence of Hsc70 (2 μM). The difference in signal intensity of His-SNAP25 probed with antibody is likely due to altered epitope exposure upon formation of the SNAP-25-Hsc70 complex. B, binding of SNAP-25 (black), SNAP-25 SNN (SNNFR, orange), and SNC (SNCFR, green)) fragments to Hsc70 by competition followed by fluorescence anisotropy. Increasing concentrations of the competitors were added to a complex of Hsc70 (5 μM) and FITC-p5 peptide (50 nM). Error bars represent SDs from three independent experiments.
To pin down the regions in SNAP-25 where Hsc70 binds we expressed the individual SNN and SNC fragments of SNAP-25 and tested their ability to compete for Hsc70 binding to an FITC-labeled p5 peptide (ALLLSAPRR).
Figure 5 SNN and SNC peptides interact with the canonical substrate-binding site of Hsc70.A, ATPase activity of Hsc70 (2 μM) in the absence (gray) and presence of 200 μM SNNP (orange) and SNCP (green) peptides. Error bars represent the SDs from three independent experiments. B, binding of SNAP-25 (black), SNNP (orange), LoopP (blue), and SNCP (green) peptides to Hsc70 followed by competition for FITC-p5 peptide using fluorescence anisotropy. Increasing concentrations of the competitors were added to a complex of Hsc70 (5 μM) and FITC-p5 peptide (50 nM). Error bars represent SDs from three independent experiments. C, structure of the canonical substrate-binding site of human HspA1 (PDB 4po2) illustrating the location of Hsc70 residues Ile 403 and Ile 440 in red and green spheres, respectively (N.B., Hsc70 and HspA1 share […] sequence identity). The SBD is shown in gray, bound substrate in cyan sticks, and the side chain of the residue occupying the 0th position in the chaperone (“anchor residue”) in orange ball and sticks. For better visualization of the substrate-binding site, residues 512 to 613, 405 to 408, and 431 were removed in this illustration of the structure. D, the Ile region of the ^1H-^13 C HMQC spectra of Ile-^13CH3-labeled Hsc70 (40 μM) in the absence (black) and in the presence of unlabeled SNNP (orange) and SNCP (green) peptides (200 μM).
To further characterize the binding of the SNAP-25 peptides to Hsc70 we used competition assays as above. Peptides SNNP, LOOPP, and SNCP were titrated against the protein-peptide complex of Hsc70 and FITC-p5 and fluorescence anisotropy was monitored to assess how well the SNAP-25 peptides displaced the model peptide.
Direct binding between the p5 peptide (QSRLLLSAPRRAA) and Hsc70 was carried out as described previously ([52]). […] Fluorescence anisotropy was measured in a BioTek plate reader (BioTek) with excitation at 485 nm and emission at 516 nm.
The measured anisotropy values were converted to fraction bound (fb) using the equation: fb=(r−r0)/(rb−r0) where r is the anisotropy value at any point, r0 is the anisotropy value of FITC-p5 in the absence of Hsc70, and rb is the anisotropy value of FITC-p5 when fully bound to Hsc70. […]
For competition assays, the concentrations of Hsc70 and FITC-P5 were kept constant at 5 μM and 50 nM, respectively, and the competitor substrate was titrated from 0 to 200 μM in phosphate buffer. […] Fluorescent anisotropy was measured as described above. […]

T1 sequence (P11142 whole entry): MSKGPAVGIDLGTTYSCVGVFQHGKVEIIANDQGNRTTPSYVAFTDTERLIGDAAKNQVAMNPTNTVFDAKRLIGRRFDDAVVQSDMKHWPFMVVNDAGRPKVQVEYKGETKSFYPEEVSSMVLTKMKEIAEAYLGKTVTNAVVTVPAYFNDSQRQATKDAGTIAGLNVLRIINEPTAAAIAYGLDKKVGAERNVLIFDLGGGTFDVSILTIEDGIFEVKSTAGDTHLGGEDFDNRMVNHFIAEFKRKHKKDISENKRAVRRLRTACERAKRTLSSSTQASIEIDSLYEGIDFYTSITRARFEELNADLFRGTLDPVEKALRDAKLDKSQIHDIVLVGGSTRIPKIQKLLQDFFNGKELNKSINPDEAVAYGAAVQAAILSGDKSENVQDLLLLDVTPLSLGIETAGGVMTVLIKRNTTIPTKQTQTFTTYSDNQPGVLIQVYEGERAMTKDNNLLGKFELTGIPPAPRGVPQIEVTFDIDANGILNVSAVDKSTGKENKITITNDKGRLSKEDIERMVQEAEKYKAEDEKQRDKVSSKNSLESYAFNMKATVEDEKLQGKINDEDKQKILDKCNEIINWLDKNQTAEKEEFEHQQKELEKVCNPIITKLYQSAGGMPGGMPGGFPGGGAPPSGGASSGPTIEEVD

Substance | competition with p5 peptide for binding to Hsc70 (fluorescence anisotropy 485/516 nm) | relative affinity for Hsc70
synaptosomal-associated 25 kDa protein [SNAP-25] | competed with p5 peptide for binding to Hsc70 | 
RRMLQLVEESK [SNNP, peptide … from the SNN domain of SNAP-25] |  | significantly higher affinity than LOOPP
EREQMAISGGFIRR [SNCP, peptide … from the LOOP-SNC domain of SNAP-25] |  | significantly higher affinity than LOOPP
